Data as given in patent US11471462B2, “Compositions and methods for detecting and treating diabetes” (THE BROAD INSTITUTE, INC., priority 2016, dated 2022).

How the values were obtained:
Format in all cases: cell-based, human
[1] = test system: SLC16-dependent pyruvate transport; test: Pyronic FRET pyruvate transport assay in 293T cells; details: 293T cells pre-incubated with inhibitor; 0.4 mM pyruvate, pH 7.4
Excerpt: To obtain “proof of concept” for monocarboxylate transport by SLC16A11, pyruvate was focused on as the metabolite transported by all four SLC16 category I proteins, whose real-time transport in mammalian cells can be readily studied by the pyruvate FRET sensor, pyronic. 293T cells were co-transfected with pyronic and either empty vector control or SLC16A11-V5, which increases SLC16A11 levels without affecting other category I family members (FIG. 3M). Cells were perfused in physiological pH 7.4 Ringer's solution and 0.4 mM pyruvate was added at the indicated time point (FIG. 3D), resulting in an increase of the fluorescence signal, indicative of pyruvate uptake. […] Thus, this is consistent with the increase in fluorescence resulting from SLC16-dependent pyruvate transport.
Cells were transferred onto glass cover slips in 60 mm tissue culture dishes 72 hr prior to the experiment. […] Cytoplasmic pH changes, indicative of H^+ transport, were determined in cells loaded with 1 μM BCECF-AM (Rink, T. J. et al., 1982, J Cell Biol, 95:189-196), a pH sensitive dye. […] Rates of proton influx and efflux were calculated as the slopes immediately following addition and withdrawal of pyruvate, after correcting for baseline drift. Baseline drift due to fluorescence bleaching is calculated during the initial 50 seconds of each trace prior to addition of pyruvate. […]

SLC16A11 [2] = test: Compound treatment, SLC16A11 expression by ddPCR in SNU761 cells; details: SNU761 cells
Outline: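 SNU761 hepatocellular carcinoma cells, plated 24 h, treated with compounds at 10 μM final or vehicle, with treatment times matching the LINCS dataset. SLC16A11 mRNA quantified by TaqMan droplet digital PCR, normalized to TBP or HPRT1.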

SLC16A11 [3] = test: Compound treatment, SLC16A11 expression by ddPCR in NCIH716 cells; details: same concentrations and treatment times as LINCS
Description: A small number of the compounds that made the strongest positive connections to the SLC16A11 gene expression signature were selected and tested. […] Methotrexate was also included, which had been annotated as a dihydrofolate reductase inhibitor. SNU761 cells (derived from a human hepatocellular carcinoma) and NCIH716 cells (derived from a human cecum adenocarcinoma), which both express SLC16A11, were treated with the compounds. The same compound concentrations and treatment times were used as in the LINCS dataset experiments. […] For normalization, a different housekeeper gene, HPRT1, was used and obtained similar results with the mTOR inhibitors (FIGS. 14A and 14B).
SNU761 (human hepatocellular carcinoma) and NCIH716 (human cecum adenocarcinoma) were cultured in RPMI Medium 1640 supplemented with 10% Fetal Bovine Serum (FBS), 100 μg/ml Streptomycin and 100 U/ml Penicillin. Cells were grown in a humidified CO2 incubator, at 37° C.
For the unbiased approach taken to investigate the compounds that connected to the SLC16A11 gene expression signature, compounds were obtained from compound management at the Broad Institute.
SNU761 and NCIH716 cells were plated into 96 well plates at a density of 20,000 cells per well. Hepatocytes were plated into collagen coated 96 well plates (Corning, 354408) at a density of 50,000 cells per well. After 24 hours, cells were treated with compounds at a final concentration of 10 μM or vehicle control for the appropriate amount of time.
At the time of collection, cells in 96 well plates were lysed by directly adding 50 μL of RLT buffer (Qiagen). […]
(§1) RNA was DNase treated and converted into cDNA using the High-Capacity RNA-to-cDNA kit (Thermo Fisher Scientific). The following FAM-labeled TaqMan Real-Time PCR assays (Thermo Fisher Scientific) were used to quantify gene expression: SLC16A11 (Hs00601062_g1), SLC16A13 (Hs00416832_m1), SLC16A1 (Hs01560299_m1). […] Droplets were generated and analyzed using a QX200 Droplet Generator and Reader system (BioRad). Data was extracted using QuantaSoft (BioRad) and analyzed using Microsoft Excel.

SLC16A1 [4] = test: Compound treatment, SLC16A1 expression by ddPCR in SNU761 cells; details: 10 μM for 24 hours
Description: (§2) FIGS. 14A-14D provide graphs showing that mTOR inhibitors increase SLC16A11, but not SLC16A1 transcript levels. […] SLC16A11 (FIGS. 14A and 14B) and SLC16A1 (FIGS. 14C and 14D) expression was then assessed using droplet digital PCR (ddPCR). Bar plots depict relative fold-changes with respect to DMSO and error bars and standard deviations. Expression is normalized to housekeeping genes TBP or HPRT1.
(§3) A small number of the compounds that made the strongest positive connections to the SLC16A11 gene expression signature were selected and tested. […] Methotrexate was also included, which had been annotated as a dihydrofolate reductase inhibitor. SNU761 cells (derived from a human hepatocellular carcinoma) and NCIH716 cells (derived from a human cecum adenocarcinoma), which both express SLC16A11, were treated with the compounds. […]
as §1

SLC16A11 (A11) = test: ddPCR based screening assay for modulators of SLC16A11 expression (Z′); details: SNU 761 cells; compound as positive control
Excerpt: As detailed herein above, SLC16A11 (A11) belongs to a family of monocarboxylate transporters. Expression of A11 was studied in SNU 761 cell lines. These liver cancer cells are ideal for studying SLC16A11 expression because A11 is expressed in higher quantity in liver cells, although expression of the gene in all tissues is extremely low. The 5 SNP risk haplotype causes lowered expression and interferes with protein-protein interactions between A11 and a cofactor protein, indicating loss of function. Therefore, increasing A11 expression in individuals with the risk haplotype is likely beneficial.
The quality of an assay can be quantified by Z′, a measure of how well the assay can differentiate between the positive and negative controls. Using the formula: […]
First the cells were treated with inhibitor compounds, their RNA was extracted, and that RNA was used as a template to create DNA. Then, the DNA was quantified using droplet digital PCR (ddPCR), analyzed and quantified using QuantaSoft™ (BioRad). […]
From the QuantaSoft scoring of each droplet, the means and standard deviations of SLC16A11 expression levels was determined in response to compound treatment. […] Points in light gray had the gene of interest and were scored as positive (FIG. 17C). SLC16A11 was scored in the graph. […]

SLC16A1 [5] = test: Compound treatment, SLC16A1 expression by ddPCR in NCIH716 cells; details: 10 μM for 24 hours
Description: as §2, §3, §1

SLC16A11 protein = SLC16A11 protein levels in HuH7 cells cultured with metabolites (Western blot); details: HuH7 cells stably expressing SLC16A11, cultured with metabolite 24 hr
Excerpt: FIG. 19 provides Western blots and experimental protocol steps involved in the analysis of SLC16A11 protein levels after culture of HuH7 cells stably expressing SLC16A11 in the presence or absence of various metabolites, namely, pyruvate, lactate and glucose. Cell lysates were used in the analysis. […] Tubulin is shown as a reference. As shown, glucose, pyruvate and […] are metabolites that affect SLC16A11 protein levels.
FIG. 20 provides Western blots of V5-tagged SLC16A11 (WT) and the V5-tagged SLC16A11 variant, T2D risk, stably expressed in HuH7 cells that had been glucose-starved for the times indicated. Cell lysates were used in the analysis. […] A similar finding is observed in the left blot of FIG. 19, above, in which no SLC16A11 protein was detected in cell lysates cultured for 24 hrs without glucose compared with detectable levels of SLC16A11 protein found in lysates from cultures containing 1-5 g/L of glucose.
FIG. 21 provides Western blots of V5-tagged SLC16A11 (WT) and the V5-tagged SLC16A11 variant, T2D risk, stably expressed in HuH7 cells that been cultured for 24 hours with or without glucose and with either low (L) or high (H) concentrations of pyruvate and lactate as indicated. Cell lysates were used in the analysis. […]

SLC16A11 [6] = test: Metabolic effectors on SLC16A11 transcript levels in SNU761 cells; details: 24 hours, low and high concentrations
Description: (§4) FIG. 22 provides bar graphs showing the effects of low and high concentrations of metabolic effectors (oleic acid (OA), insulin and glucagon) on expression levels of SLC16A11 and SLC16A13 transcripts in SNU761 cells cultured for 24 hours in the presence of low/high concentrations of OA (0.3 mM/1.5 mM); insulin (100 nM/500 nM); or glucagon (100 nM/500 nM). Relative transcipt levels of SLC16A11 and SLC16A13 are shown, with 2-FBS (2% Fetal Bovine Serum) used as control.
(§5) FIG. 23 provides bar graphs showing the effects of low and high concentrations of pyruvate or lactate on expression levels of SLC16A11 and SLC16A13 transcripts in SNU761 cells cultured for 24 hours in the presence of 2 mM pyruvate (low), 10 mM pyruvate (high), 20 mM lactate (low), or 100 mM lactate (high). Relative transcipt levels of SLC16A11 and SLC16A13 are shown, compared with transcript levels in cell cultured in increasing concentrations of glucose.
(§6) To assess whether metabolic effectors regulated SLC16A11 and SLC16A13 transcript levels, endogenous transcripts in SNU761 cells (derived from a human hepatocellular carcinoma) were examined following exposure of the cells to different metabolic perturbations. SNU761 cells were cultured in the presence of various metabolic effectors for 24 hours after which time cell lysates were collected and the relative endogenous expression levels of SLC16A11 and SLC16A13 transcripts were assessed. The metabolic effectors included in the cell cultures included oleic acid (OA) at a low concentration (0.3 mM) or a high concentration (1.5 mM); insulin at a low concentration (100 nM) or a high concentration (500 nM) and glucagon at a low concentration (100 nM) and a high concentration (500 nM). Cells cultured in 2-FBS were used as a control. […] (FIG. 22). Similarly, SNU761 cells were cultured in the presence or absence of low or high concentrations of pyruvate or lactate in the culture medium for 24 hours after which time cell lysates were analyzed. In the cultures, low (L) pyruvate concentration was 2 mM; high (H) pyruvate concentration was 10 mM, and low lactate concentration was 20 mM, while high lactate concentration was 100 mM. […] (FIG. 23).

SLC16A13 = test: Metabolic effectors on SLC16A13 transcript levels in SNU761 cells; details: 24 hours, high concentration (10 mM pyruvate, 100 mM lactate)
Description: as §4, §5, §6

Cc1n[nH]c(C)c1Cc1sc2c(c1C(=O)N1C[C@H](O)CO1)c(=O)n(C)c(=O)n2CC(C)C [AR-C155858]
pyronic fluorescence signal (pyruvate uptake) [1]: completely diminished

COc1ccc(-c2ccc3c(N4CCOCC4)nc(N4C[C@@H](C)O[C@@H](C)C4)nc3n2)cc1CO [KU-0063794, [5-[2-(2,6-dimethylmorpholin-4-yl)-4-morpholin-4-ylpyrido[2,3-d]pyrimidin-7-yl]-2-methoxyphenyl]methanol]
SLC16A11 transcript levels, compound treated compared to DMSO treated cells (SLC16A11 [2]; same concentrations and treatment times as LINCS, ddPCR): about 3 fold
avg_fc (SLC16A11 expression, compound treated vs DMSO treated cells) (SLC16A11 [2]; same doses and treatment times as in the LINCS dataset): 4.009
increase in SLC16A11 expression, compound treated compared to DMSO treated cells (SLC16A11 [2]; unbiased test of 59 top and 20 middle LINCS compounds, LINCS doses and times): ~4 fold
SLC16A11 transcript levels, compound treated compared to DMSO treated cells (SLC16A11 [3]): about 3 fold
SLC16A1 expression with respect to DMSO (SLC16A1 [4]): slight decrease
A11 expression in manual ddPCR assay (SLC16A11 (A11)): increased
SLC16A1 expression with respect to DMSO (SLC16A1 [5]): slight decrease

CC(O)C(=O)O (centres unmarked) [lactate]
SLC16A11 protein levels (SLC16A11 protein): alter SLC16A11 protein levels
SLC16A11 transcript levels (SLC16A11 [6]): alter transcripts at 17p13
relative transcript levels of SLC16A13 (SLC16A13): increased
